Values of other authors, collected in patent EP3466870B1, “SURFACE-MODIFIED SODIUM HYPOCHLORITE PENTAHYDRATE CRYSTAL, AND METHOD FOR PRODUCING SAME” (Nippon Light Metal Company, Ltd., priority 2016, dated 2017).
Like-named read-outs stand apart in the source and are kept apart here.

Conditions: in water at 25°C

Row | SMILES | pKa (first value listed) | pKa (second value listed)
1 | O=C(O)O [carbonic acid] | 6.11 | 9.87
2 | O=C(O)C(=O)O [oxalic acid] | 1.04 | 3.82
